In article PMC12772150, “PIP2 corrects an endothelial Piezo1 channelopathy” (Proceedings of the National Academy of Sciences of the …, 2025):

Legend:
Piezo1 [1] = target: T1, Piezo1 (Mus musculus, UniProt E2JF22, R2482H); experiment: cell-attached single-channel patch clamp, […] PIP2, no Yoda1 ([…] inhibition); assay type: cell-based
T1 construct: mutant channel in capillary endothelial cells of Piezo1EC-Mutant mice

Piezo1 [2] = target: T2, Piezo1 (Mus musculus, UniProt E2JF22); experiment: single-channel patch clamp (cell-attached concentration-response with Yoda1; outside-out patches with PIP2 in pipette); assay type: cell-based
T2 construct: native channel in freshly isolated brain capillary endothelial cells
T2 sequence (E2JF22 whole entry): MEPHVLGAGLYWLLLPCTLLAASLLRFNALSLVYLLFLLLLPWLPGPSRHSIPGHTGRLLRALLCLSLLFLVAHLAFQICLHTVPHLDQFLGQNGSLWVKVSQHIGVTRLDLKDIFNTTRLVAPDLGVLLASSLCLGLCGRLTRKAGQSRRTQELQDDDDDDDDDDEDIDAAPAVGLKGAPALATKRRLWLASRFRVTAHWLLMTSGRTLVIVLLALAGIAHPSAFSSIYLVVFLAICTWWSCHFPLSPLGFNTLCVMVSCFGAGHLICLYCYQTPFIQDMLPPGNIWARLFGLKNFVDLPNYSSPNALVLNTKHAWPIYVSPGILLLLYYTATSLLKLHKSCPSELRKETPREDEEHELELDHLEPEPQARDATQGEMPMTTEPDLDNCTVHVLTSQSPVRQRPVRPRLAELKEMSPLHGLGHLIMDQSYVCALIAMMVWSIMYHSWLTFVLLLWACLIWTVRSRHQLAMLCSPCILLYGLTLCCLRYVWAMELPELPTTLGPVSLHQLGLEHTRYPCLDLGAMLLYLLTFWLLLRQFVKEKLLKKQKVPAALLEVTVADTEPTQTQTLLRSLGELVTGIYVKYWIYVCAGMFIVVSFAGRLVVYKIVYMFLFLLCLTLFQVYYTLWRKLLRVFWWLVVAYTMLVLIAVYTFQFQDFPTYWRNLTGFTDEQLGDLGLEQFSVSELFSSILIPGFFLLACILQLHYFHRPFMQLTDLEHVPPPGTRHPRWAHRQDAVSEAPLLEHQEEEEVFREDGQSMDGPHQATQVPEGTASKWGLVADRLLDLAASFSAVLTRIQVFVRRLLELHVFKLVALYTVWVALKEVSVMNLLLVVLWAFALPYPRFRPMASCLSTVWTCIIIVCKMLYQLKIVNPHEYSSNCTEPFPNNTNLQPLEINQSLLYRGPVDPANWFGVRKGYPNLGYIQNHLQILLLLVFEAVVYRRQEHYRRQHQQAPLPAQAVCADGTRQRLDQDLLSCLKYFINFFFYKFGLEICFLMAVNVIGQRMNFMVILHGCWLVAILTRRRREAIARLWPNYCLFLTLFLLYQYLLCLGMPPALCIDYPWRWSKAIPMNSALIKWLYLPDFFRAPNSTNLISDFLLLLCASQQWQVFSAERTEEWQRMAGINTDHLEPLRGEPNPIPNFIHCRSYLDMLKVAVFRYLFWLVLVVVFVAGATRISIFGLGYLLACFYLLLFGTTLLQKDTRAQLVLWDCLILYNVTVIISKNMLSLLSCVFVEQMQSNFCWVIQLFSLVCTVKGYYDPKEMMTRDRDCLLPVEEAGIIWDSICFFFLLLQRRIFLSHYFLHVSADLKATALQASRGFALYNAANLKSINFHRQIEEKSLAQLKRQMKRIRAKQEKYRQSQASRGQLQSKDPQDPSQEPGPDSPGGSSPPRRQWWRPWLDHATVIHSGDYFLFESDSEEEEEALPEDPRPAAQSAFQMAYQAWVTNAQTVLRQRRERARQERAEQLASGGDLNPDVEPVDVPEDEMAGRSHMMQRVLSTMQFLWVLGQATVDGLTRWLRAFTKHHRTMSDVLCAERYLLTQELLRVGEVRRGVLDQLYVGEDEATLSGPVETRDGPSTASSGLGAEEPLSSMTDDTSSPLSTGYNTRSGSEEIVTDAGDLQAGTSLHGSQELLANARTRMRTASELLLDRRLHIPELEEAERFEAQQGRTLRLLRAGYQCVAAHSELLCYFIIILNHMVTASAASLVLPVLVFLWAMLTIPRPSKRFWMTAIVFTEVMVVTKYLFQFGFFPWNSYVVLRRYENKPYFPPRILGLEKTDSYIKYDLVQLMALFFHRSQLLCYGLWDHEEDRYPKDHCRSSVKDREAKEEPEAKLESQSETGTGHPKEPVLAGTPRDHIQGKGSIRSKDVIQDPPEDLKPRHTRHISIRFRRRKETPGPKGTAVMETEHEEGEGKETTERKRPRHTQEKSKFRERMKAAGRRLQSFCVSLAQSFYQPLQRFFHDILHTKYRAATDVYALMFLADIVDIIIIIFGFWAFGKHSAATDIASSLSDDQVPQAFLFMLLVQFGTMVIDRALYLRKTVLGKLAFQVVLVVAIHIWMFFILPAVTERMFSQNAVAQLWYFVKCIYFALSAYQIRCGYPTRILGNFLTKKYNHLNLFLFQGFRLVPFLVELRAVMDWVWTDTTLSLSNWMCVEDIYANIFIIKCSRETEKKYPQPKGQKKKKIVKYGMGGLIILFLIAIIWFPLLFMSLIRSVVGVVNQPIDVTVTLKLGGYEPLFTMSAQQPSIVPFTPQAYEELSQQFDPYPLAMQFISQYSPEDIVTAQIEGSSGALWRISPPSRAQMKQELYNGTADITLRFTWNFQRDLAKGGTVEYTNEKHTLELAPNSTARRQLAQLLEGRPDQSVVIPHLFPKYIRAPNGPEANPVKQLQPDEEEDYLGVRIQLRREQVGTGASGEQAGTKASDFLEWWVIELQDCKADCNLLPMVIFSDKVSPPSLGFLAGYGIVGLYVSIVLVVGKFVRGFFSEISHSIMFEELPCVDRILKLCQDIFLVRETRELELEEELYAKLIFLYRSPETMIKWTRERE

T1 sequence (E2JF22 whole entry R2482H): as the sequence (E2JF22 whole entry) above, with R2482H counted along it

Compound `CCCCCCCCCCCCCCCC(=O)OC[C@H](COP(=O)(O)O[C@@H]1[C@H](O)[C@H](O)[C@@H](OP(=O)(O)O)[C@H](OP(=O)(O)O)[C@H]1O)OC(=O)CCCCCCCCCCCCCCC` [diC16-PIP2] has an inhibition at 10 µM (Piezo1 [1]) of 50% and an IC50 (Piezo1 [2]) of about 0.3 µM.
